This experiment relates to SARS-CoV-2 variants: Ancestral (lineage A), Alpha (B.1.1.7), Beta (B.1.351), Gamma (P.1), Delta (B.1.617.2), Omicron (B.1.1.529). Type of experiment: cell-based.

Results on one compound are retold here after patent US20260130917A1, “ANTIVIRAL COMPOSITION FOR CORONAVIRUS OR INFLUENZA VIRUS, USING NATURAL PRODUCTS, AND USE THEREOF” (priority 2022, published 2026).

In the case of `CCCCCOc1cccc(/C=C/C23N=C(O)CCN2c2ccccc2C3(C)C)c1` (stereo not shown) [MolPort-005-980-235, 10,10-dimethyl-10a-[(1E)-2-[3-(pentyloxy)phenyl]ethenyl]-3H,4H,10H,10aH-pyrimido[1,2-a]indol-2-ol], the “antiviral activity against SARS-CoV-2 variants” value is given as “had antiviral activity against all verified SARS-CoV-2 variants, including Omicron, in a dose-dependent manner”.
